Tests used:
Type in all cases: biochemical
[1] = system: superoxide, formed in a xanthine-xanthine oxidase system; assay: Active oxygen eliminating activity of powdery carrot compositions with saccharides before and after storage, nitro blue tetrazolium (NBT) test (Experiment 3); conditions: for Activity (unit/g) After storage / Percentage of residual activity (%) / Activity (unit/g) Before storage: powdery carrot composition; for Activity (unit/g) After storage / Percentage of residual activity (%): saccharide added at 10% d.s.b., stored at 40° C. for seven days; for Activity (unit/g) Before storage: saccharide added to disrupted carrots at 10% d.s.b.; for residual percentage / reduction inhibitory activity for active oxygen eliminating activity among the saccharides tested: powdery carrot compositions, 40° C. seven days, in words
Method: Fresh raw carrots were disrupted by a mixer, and saccharides were respectively added to the mixture and dissolved therein to give a concentration of 10%, d.s.b. The solutions were dried under a reduced pressure at 40° C. for two days, dried in vacuo at the same temperature for 24 hours, and pulverized by a mixer into powdery carrot compositions. […] An about 100 g each of the compositions was placed and sealed in a 500-ml polystyrene container, and stored at 40° C. for seven days. The active oxygen eliminating activities of the compositions before and after storage were compared with each other. The active oxygen eliminating activity was assayed by the nitro blue tetrazolium (NBT) test by Toshio IMANARI et al. in Igakuno Ayumi, Vol. 101, pp. 496-497 (1977), and the level of superoxide, formed in a xanthine-xanthine oxidase system, was assayed by quantifying calorimetrically the content of formazan formed by reducing NBT. As a control, refined water was used as a test solution. One unit activity of active oxygen eliminating activity was defined as that inhibited 50% formazan formation as compared with the control. […] Thus cyclotetrasaccharide is preferable as an effective ingredient for a reduction inhibitory agent for active oxygen eliminating activity.

[2] = system: superoxide, formed in a hypoxanthine-xanthine oxidase system; assay: Active oxygen eliminating activity of powdery carrot compositions with saccharides before and after storage, electron spin resonance (ESR) test (Experiment 4); conditions: powdery carrot composition
Method: Fresh raw carrots were disrupted as Experiment 3, and saccharides were respectively added to the mixture and dissolved therein to give a concentration of 10%, d.s.b. The solutions were dried under a reduced pressure at 40° C. for one day, dried in vacuo at the same temperature for 17 hours, and pulverized by a mixer into powdery carrot compositions. […] About 100 g each of the compositions was placed and sealed in a 500-ml polystyrene container, and stored at 40° C. for seven or fourteen days. The active oxygen eliminating activities of the compositions before and after storage were compared with each other. The active oxygen eliminating activity was assayed by the electron spin resonance (ESR) test by Toshihiko OZAWA in BUNSEKI, Vol. 2, pp. 68-74 (2000), and the level of superoxide, formed in a hypoxanthine-xanthine oxidase system, was assayed by the spin-trapping with 5,5-dimethyl-1-pyrroline-N-oxide in ESR.

active oxygen = assay: Active oxygen eliminating activity of superoxide dismutase and antioxidants in cyclotetrasaccharide solution or water before and after storage (Experiment 7); conditions: for Activity (unit/mg antioxidant) After one storage / Residual activity (%): dark; for Activity (unit/mg antioxidant) Before storage: superoxide dismutase 5 μg/ml, α-glucosyl hesperidin and α-glucosyl rutin 10 mg/ml, catechin 50 μg/ml
Method: In one milliliter of 30% (w/v) cyclotetrasaccharide solution, which is prepared by using cyclotetrasaccharide obtained in Experiment 2, was dissolved five micrograms (μ g) of superoxide dismutase from a horseradish commercialized by Sigma Chemical Co., St. Louis, USA, 10 mg of α-glucosyl hesperidin commercialized by Hayashibara Biochemical Laboratories, Inc., Okayama Japan, 10 mg of α-glucosyl rutin commercialized by Hayashibara Biochemical Laboratories, Inc., Okayama, Japan, 250 μg of gallic acid commercialized by Wako Pure Chemical Industries, Ltd., Tokyo, Japan, or 50 μg of catechin to obtain a liquid composition. Each of the compositions was placed in a glass test tube, sealed with a rubber cap, and stored under a dark condition. As a control, water was used in place of the cyclotetrasaccharide solution.

[3] = cyclotetrasaccharide 0% (water), 80° C. 5 days, α-glucosyl hesperidin, α-glucosyl rutin 10 mg/ml, gallic acid 250 μg/ml
[4] = cyclotetrasaccharide 30%, 80° C. 5 days, α-glucosyl hesperidin, α-glucosyl rutin 10 mg/ml, gallic acid 250 μg/ml
[5] = cyclotetrasaccharide concentration 0% (water), gallic acid 250 μg/ml
[6] = cyclotetrasaccharide concentration 30%, gallic acid 250 μg/ml
[7] = cyclotetrasaccharide 0% (water), 60° C. 17 hours, 5 μg/ml
[8] = cyclotetrasaccharide 30%, 60° C. 17 hours, 5 μg/ml
[9] = cyclotetrasaccharide 0% (water), 25° C. 20 hours, 50 μg/ml
[10] = cyclotetrasaccharide 30%, 25° C. 20 hours, 50 μg/ml

Row | Compound | Activity (unit/g) After storage [1] | Percentage of residual activity (%) [1] | Activity (unit/g) Before storage [1] | Activity (unit/mg antioxidant) Before storage (active oxygen; [5]) | Activity (unit/mg antioxidant) Before storage (active oxygen; [6]) | other results
1 | OC[C@H]1O[C@H](O[C@H]2[C@H](O)[C@@H](O)C(O)O[C@@H]2CO)[C@H](O)[C@@H](O)[C@@H]1O (mixture of isomers) [Maltose, maltose] | 180 unit/g | 33% | 550 unit/g |  |  | Activity (unit/g) Before storage ([2]; saccharide added at 10% d.s.b., before storage): 236 unit/g; Activity (unit/g) After two weeks storage ([2]; stored at 40° C. for fourteen days): 53 unit/g; percentage of residual activity After two weeks storage ([2]; stored at 40° C. for fourteen days, numerals in parentheses): 22%; Activity (unit/g) After one week storage ([2]; stored at 40° C. for seven days): 56 unit/g; percentage of residual activity After one week storage ([2]; stored at 40° C. for seven days, numerals in parentheses): 24%
2 | O=C(O)c1cc(O)c(O)c(O)c1 [Gallic acid, gallic acid] |  |  |  | 590 unit/mg antioxidant | 600 unit/mg antioxidant | Activity (unit/mg antioxidant) After one storage (active oxygen; [3]): 390 unit/mg antioxidant; Residual activity (%) (active oxygen; [3]): 66%; Activity (unit/mg antioxidant) After one storage (active oxygen; [4]): 450 unit/mg antioxidant; Residual activity (%) (active oxygen; [4]): 75%
3 | OC[C@@H](O)[C@@H](O)[C@H](O)[C@H](O)CO [Mannitol, mannitol] | 59 unit/g | 11% | 520 unit/g |  |  | 
4 | OC[C@@H](O)[C@@H](O)[C@H](O)[C@@H](O)CO [Sorbitol, sorbitol] | 26 unit/g | 5% | 560 unit/g |  |  | 
5 | OC[C@H]1O[C@@](CO)(O[C@H]2O[C@H](CO)[C@@H](O)[C@H](O)[C@H]2O)[C@@H](O)[C@@H]1O [Sucrose, sucrose] | 180 unit/g | 27% | 660 unit/g |  |  | 
6 | OC[C@H]1O[C@H](O[C@H]2O[C@H](CO)[C@@H](O)[C@H](O)[C@H]2O)[C@H](O)[C@@H](O)[C@@H]1O [Trehalose, trehalose] | 380 unit/g | 66% | 580 unit/g |  |  | residual percentage / reduction inhibitory activity for active oxygen eliminating activity among the saccharides tested [1]: highest residual percentage
7 | OCC1OC2OCC3O[C@H](O[C@H]4C(O)C(CO)OC(OCC5O[C@H](O[C@@H](C1O)C2O)C(O)C(O)[C@@H]5O)C4O)C(O)C(O)[C@@H]3O (some centres unmarked) [crystalline cyclotetrasaccharide hydrate] |  |  |  |  |  | change of the active oxygen eliminating activity on storage of a powder mixture (active oxygen; powdery crystalline cyclotetrasaccharide hydrate mixed dry with either of the powdery antioxidants, storage test as in Table 5): almost no change of the active oxygen eliminating activity
8 | Superoxide dismutase |  |  |  | 10,000 unit/mg antioxidant | 12,000 unit/mg antioxidant | Activity (unit/mg antioxidant) After one storage (active oxygen; [7]): 4,600 unit/mg antioxidant; Residual activity (%) (active oxygen; [7]): 46%; Activity (unit/mg antioxidant) After one storage (active oxygen; [8]): 7,300 unit/mg antioxidant; Residual activity (%) (active oxygen; [8]): 61%
9 | catechin |  |  |  | 470 unit/mg antioxidant | 450 unit/mg antioxidant | Activity (unit/mg antioxidant) After one storage (active oxygen; [9]): 2.2 unit/mg antioxidant; Residual activity (%) (active oxygen; [9]): 0%; Activity (unit/mg antioxidant) After one storage (active oxygen; [10]): 240 unit/mg antioxidant; Residual activity (%) (active oxygen; [10]): 53%
10 | pullulan | 360 unit/g | 51% | 710 unit/g |  |  | residual percentage / reduction inhibitory activity for active oxygen eliminating activity among the saccharides tested [1]: relatively-high reduction inhibitory activity
11 | α-glucosyl hesperidin |  |  |  | 3.8 unit/mg antioxidant | 4.0 unit/mg antioxidant | Activity (unit/mg antioxidant) After one storage (active oxygen; [3]): 1.0 unit/mg antioxidant; Residual activity (%) (active oxygen; [3]): 26%; Activity (unit/mg antioxidant) After one storage (active oxygen; [4]): 2.1 unit/mg antioxidant; Residual activity (%) (active oxygen; [4]): 53%
12 | α-glucosyl rutin |  |  |  | 25 unit/mg antioxidant | 26 unit/mg antioxidant | Activity (unit/mg antioxidant) After one storage (active oxygen; [3]): 18 unit/mg antioxidant; Residual activity (%) (active oxygen; [3]): 72%; Activity (unit/mg antioxidant) After one storage (active oxygen; [4]): 22 unit/mg antioxidant; Residual activity (%) (active oxygen; [4]): 85%

From patent US20070218189A1, “Reduction inhibitory agent for active oxygen eliminating-activity” (KABUSHIKI KAISHA HAYASHIBARA SEIBUTSU KAGAKU KENYUJO, priority 2001, published 2007)
